We go through two compounds from patent US12606585B2, “Fluorinated hexoses” (Stichting Radboud Universiteit, priority 2020, dated 2026).

What all share (assay type): cell-based
Assay [1] deals with THP-1 cells. The experiment in a line: Lectin specificity: total cell surface glycosylation with additional lectins. As to conditions: 100 μM and 10 μM, three days; for LCA and PSA lectin binding: lectins restricted to α1,6-linked core fucosylation. The protocol:
Protocol below was repeated until n>=3 for each compounds using cells at different passage numbers. Culture medium was prepared in 96-wells plates (Thermo Scientific). For every unnatural sugar derivative, 11 wells containing 100 μM of unnatural sugar derivatives and 11 wells containing 10 μM of the unnatural sugar derivatives were prepared. DMSO, at same dilution as the tested probes, was used as a positive control for lectin staining. THP-1 Cells were cultured in the plates (20,000 cells per well) and the cells were incubated for three days at 37° C. and 5% CO2. Cells were harvested and washed with 100 μl 1×CF-blocking buffer (Vector Laboratories Inc.) containing 1 mM CaCl2) and 1 mM MgCl2. The cells were then resuspended in 50 μl 0.5 μg/ml of either 0.5 ng/ml biotinylated AAL, AOL, SNA, MAL-II, WGA, LCA, PSA, PNA, PHA-L or GSL-1 lectin in 1× carbo-free blocking buffer or with 50 μl of non-supplemented 1× carbo-free blocking buffer and incubated at 4-8° C. for 45-60 min. Cells were washed with 3×100 μl PBA (PBS containing 1% v/v FBS and 0.1% w/w sodium azide), incubated with 40 μl 1 μg/ml Streptavidin-phycoerythrin conjugate (Invitrogen, eBioscience) in PBA for 10-15 min at 4-8° C. Cells were then washed again with 3×100 μl PBA, resuspended in PBA and fluorescence was measured with a flow cytometer (Beckman & Dickinson FACS-Calibur). Each replicate for each condition with >10,000 gated events. Data was processed using FlowJo (FlowJo LLC). Percentage of lectin binding was obtained by normalizing the MFI values to the MFI values of the respective DMSO control.
Compounds 9 & 10 are mannose-1-phosphate derivatives, so other glycosylation pathways such as mannosylation could be imagined to be affected. Having established the ability to inhibit cellular fucosylation with AAL and AOL lectins, the effect on total cell surface glycosylation was evaluated using additional lectins (FIG. 4A and FIG. 4B). N-glycans consist of a biantennary mannose containing backbone, recognized by WGA, and can be branched recognized by L-Pha. These branches can be terminated with galactose, recognized by PNA, or α2,6- and α2,3-linked sialic acids recognized by SNA and MAL-II, respectively. […] The decrease in binding for these lectins can thus be attributed to defucosylation as confirmed by a decrease in AAL and AOL binding and no effect on WGA binding.

The test system of assay [2] is THP-1 cells. The experiment in a line: Lectin staining for fucose expression inhibition, THP-1 cells. As to conditions: Homo sapiens, 72 h, 3 days, 0-512 μM compound, flow cytometry. On the procedure:
(§1) THP-1 cells (TIB-202, ATCC) and Jurkat cells (TIB-152, ATCC) were cultured in RPMI-1640 medium containing 2 mM Glutamine and 25 mM HEPES (Gibco™, Life Technologies), supplemented with 10% v/v heat-inactivated fetal bovine serum (FBS) (Gibco™, Life Technologies) and 1× antibiotic-antimycotic solution (100 units/mL of penicillin, 100 μg/mL of streptomycin, and 0.25 μg/mL Fungizone) (Gibco™, Life Technologies) and passaged every 3-4 day by seeding a fraction of 0.5-2 min cells of the culture per 10 ml medium. EL-4 cells (TIB-39, ATCC) were cultured in DMEM medium (Gibco™, Life Technologies), supplemented with 10% v/v heat-inactivated fetal bovine serum (FBS) (Gibco™, Life Technologies), 1× antibiotic-antimycotic solution (100 units/mL of penicillin, 100 μg/mL of streptomycin, and 0.25 μg/mL Fungizone) (Gibco™, Life Technologies) and 2 mM Glutamine (Gibco™, Life Technologies) and passaged every 2-4 days by seeding a fraction of 0.5-1 min cells of the culture per 10 ml medium. For passaging a T75 flask (Corning), medium was removed and the monolayer was washed with 10 ml PBS pH 7.2 without CaCl2) and MgCl2 (Gibco™, Life Technologies) before adding 3.5 ml 0.05% trypsin/EDTA solution (Gibco™ 5 Life Technologies) in PBS. Cells were incubated at rt for 30-45 s after which the trypsin/EDTA-solution was removed. Cells were incubated for an additional 2 min at 37° C., 5.0% CO2 and resuspended in cell culture medium. Cells were then seeded at ˜40.000 cells/cm^2 in new culture flasks. All cells were cultured at 37° C., 5% CO2 in a humidified incubator.
(§2) Protocol below was repeated until n>=3 for each compounds using cells at different passage numbers. Cells were cultured in medium containing different concentrations of unnatural sugar derivatives on either 24-wells plates (adherent cell lines; 80,000 cells per well) (Corning) or 96-wells plates (suspension cell lines; 13,000-20,000 cells per well) (Thermo Scientific). DMSO, at same dilution as the unnatural sugar derivative stock solutions, was used as a positive control for lectin staining; P-Fuc2F was used for all concentrations as negative control. Cells were incubated for three days at 37° C. and 5% CO2 in a humidified incubator. Cells were harvested and washed with 100 μl 1×CF-blocking buffer (Vector Laboratories Inc.) containing 1 mM CaCl2) and 1 mM MgCl2. The cells were then resuspended in 50 μl 0.5 μg/ml of 0.5 ng/ml biotinylated lectin in 1× carbo-free blocking buffer and incubated at 4-8° C. for 45-60 min. Cells were washed with 3×100 μl PBA (PBS containing 1% v/v FBS and 0.1% w/w sodium azide), incubated with 40 μl 1 μg/ml Streptavidin-phycoerythrin conjugate (Invitrogen, eBioscience) in PBA for 10-15 min at 4-8° C. Cells were then washed again with 3×100 μl PBA, resuspended in PBA and fluorescence was measured with a flow cytometer (Beckman & Dickinson FACS-Calibur). Each replicate for each condition with >10,000 gated events. Data was processed using FlowJo (FlowJo LLC). Percentage of lectin binding was obtained by normalizing the MFI values to the MFI values of the respective DMSO control.
(§3) Three cell lines (THP-1, Jurkat, EL4) were cultured for 3 days with 0-512 μM compound. The cells were stained with two fucose specific lectins (AAL & AOL) and analysed by flow cytometry, presented as mean percentage lectin binding normalized to control (n=3).
(A flow cytometer gives signals particle by particle.)

In another assay the test system is Jurkat cells. The experiment in a line: Lectin staining for fucose expression inhibition, Jurkat cells. As to conditions: Homo sapiens, 72 h, 3 days, 0-512 μM compound, flow cytometry. On the procedure: as §1, §2, §3
[3] abbreviates: AAL lectin, n=3, read-out: EC50 for fucose expression inhibition, THP-1 AAL.
[4] abbreviates: AOL lectin, n=3, read-out: EC50 for fucose expression inhibition, THP-1 AOL.
[5] abbreviates: AAL lectin, n=3, read-out: EC50 for fucose expression inhibition, Jurkat AAL.
Where [6] appears, read: AOL lectin, n=3, read-out: EC50 for fucose expression inhibition, Jurkat AOL.

Read-outs that look alike come from different tables or passages of the source.

What is called EC50 is the concentration that produces a half-maximal response. With `CC(=O)OC1C(OC(C)=O)[C@H](OC(C)=O)C(C(F)F)O[C@@H]1OP(=O)(OCCSC(C)=O)OCCSC(C)=O` (stereo partly drawn) [P-D-Rha6F2-1P (9), Di-(S-acetyl-2-thioethyl)-(2,3,4-tri-O-acetyl-6,6-difluoro-α-D-rhamnopyranoside) phosphate], the “effect on binding of WGA, L-Pha, PNA, SNA and MAL-II lectins” value in the assay with THP-1 cells [1] is listed as “No significant effect”. Besides, the “LCA and PSA lectin binding” value with THP-1 cells [1] is listed as “decreased binding”. The concentration for a half-maximal effect (EC50) in the assay with THP-1 cells [2] (setting [3]) was determined as 1.97 µM; in the assay on THP-1 cells [2] (setting [4]), 5.26 µM; with Jurkat cells (setting [5]), 5.93 µM; with Jurkat cells (setting [6]), 4.1 µM.
In the case of `CC(=O)OC1C(OC(C)=O)[C@H](OC(C)=O)C(C(F)(F)F)O[C@@H]1OP(=O)(OCCSC(C)=O)OCCSC(C)=O` (stereo partly drawn) [P-D-Rha6F3-1P (10), Di-(S-acetyl-2-thioethyl)-(2,3,4-tri-O-acetyl-6,6,6-trifluoro-α-D-mannopyranoside) phosphate], the “effect on binding of WGA, L-Pha, PNA, SNA and MAL-II lectins” value in the assay on THP-1 cells [1] is given as “No significant effect”. Further, in the assay on THP-1 cells [1], the “LCA and PSA lectin binding” value is listed as “decreased binding”. In addition, the half-maximal effective concentration (EC50) in the assay on THP-1 cells [2] (setting [3]) came out at 0.608 µM; in the assay with THP-1 cells [2] (setting [4]) it was 0.454 µM; in the assay on Jurkat cells (setting [5]) it was 27.7 µM; in the assay on Jurkat cells (setting [6]), 12.8 µM.
